Active and inactive are the calls of the source.

Test [1] deals with Beta-2 adrenergic receptor (Homo sapiens, UniProt P07550). Kind of test: beta2AR agonists driving receptor internalization, dose response, cell-based, FAP fluorogen, flow cytometry, cherry pick 1 (AID 588763). Type of test: functional. In general terms: Flow cytometry measures light scatter and fluorescence of single cells or particles in a stream.
The target in another test is T1, Cytochrome P450 1A2 (Homo sapiens, UniProt P05177).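 Also: PubChem cytochrome P450 panel assay, CYP1A2 panel member.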
T1 sequence (P05177 whole entry): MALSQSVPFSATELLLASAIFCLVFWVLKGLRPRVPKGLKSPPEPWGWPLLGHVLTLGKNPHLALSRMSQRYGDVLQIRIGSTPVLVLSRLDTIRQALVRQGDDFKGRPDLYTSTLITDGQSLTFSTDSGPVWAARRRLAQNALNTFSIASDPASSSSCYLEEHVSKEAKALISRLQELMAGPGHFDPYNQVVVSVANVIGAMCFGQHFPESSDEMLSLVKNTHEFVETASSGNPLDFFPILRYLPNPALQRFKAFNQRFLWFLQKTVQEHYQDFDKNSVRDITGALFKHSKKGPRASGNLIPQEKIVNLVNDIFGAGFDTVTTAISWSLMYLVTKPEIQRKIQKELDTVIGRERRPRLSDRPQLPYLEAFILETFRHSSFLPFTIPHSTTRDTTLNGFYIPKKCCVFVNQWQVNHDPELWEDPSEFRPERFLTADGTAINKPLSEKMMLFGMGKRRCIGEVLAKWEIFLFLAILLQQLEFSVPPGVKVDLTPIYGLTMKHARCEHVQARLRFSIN

The target in another test is Cytochrome P450 2C9 (Homo sapiens, UniProt P11712).
For the next test, the target named is T2, Leucine aminopeptidase (Plasmodium falciparum 3D7, UniProt Q8IL11).
T2 sequence (Q8IL11 whole entry): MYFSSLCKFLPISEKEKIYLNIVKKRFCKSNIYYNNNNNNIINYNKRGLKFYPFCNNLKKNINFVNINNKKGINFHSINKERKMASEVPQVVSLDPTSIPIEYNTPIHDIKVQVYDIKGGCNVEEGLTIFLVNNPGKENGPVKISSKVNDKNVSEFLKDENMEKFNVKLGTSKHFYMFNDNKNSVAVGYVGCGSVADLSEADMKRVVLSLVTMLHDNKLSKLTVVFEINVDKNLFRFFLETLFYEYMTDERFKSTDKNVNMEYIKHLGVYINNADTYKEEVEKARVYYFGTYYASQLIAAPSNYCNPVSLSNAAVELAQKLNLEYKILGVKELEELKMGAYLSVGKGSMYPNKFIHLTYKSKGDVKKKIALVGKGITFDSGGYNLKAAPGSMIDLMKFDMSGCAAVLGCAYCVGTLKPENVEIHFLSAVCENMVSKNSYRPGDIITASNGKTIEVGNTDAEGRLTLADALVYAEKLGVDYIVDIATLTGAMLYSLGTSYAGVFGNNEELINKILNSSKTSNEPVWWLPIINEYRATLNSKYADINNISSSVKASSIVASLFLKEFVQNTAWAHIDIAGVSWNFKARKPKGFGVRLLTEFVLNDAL
Kind of test: P. falciparum M17LAP inhibitors, primary screen, biochemical, fluorogenic H-Leu-NHMec substrate, 1536-well (AID 1619). Type of test: functional.

The test system of a further test is HEK293. Description: cells. Type of test: functional, cell-based. The following applies: Homo sapiens.
The target in test [2] is T3, Nuclear receptor subfamily 0 group B member 1 (Homo sapiens, UniProt P51843).
T3 sequence (P51843 whole entry): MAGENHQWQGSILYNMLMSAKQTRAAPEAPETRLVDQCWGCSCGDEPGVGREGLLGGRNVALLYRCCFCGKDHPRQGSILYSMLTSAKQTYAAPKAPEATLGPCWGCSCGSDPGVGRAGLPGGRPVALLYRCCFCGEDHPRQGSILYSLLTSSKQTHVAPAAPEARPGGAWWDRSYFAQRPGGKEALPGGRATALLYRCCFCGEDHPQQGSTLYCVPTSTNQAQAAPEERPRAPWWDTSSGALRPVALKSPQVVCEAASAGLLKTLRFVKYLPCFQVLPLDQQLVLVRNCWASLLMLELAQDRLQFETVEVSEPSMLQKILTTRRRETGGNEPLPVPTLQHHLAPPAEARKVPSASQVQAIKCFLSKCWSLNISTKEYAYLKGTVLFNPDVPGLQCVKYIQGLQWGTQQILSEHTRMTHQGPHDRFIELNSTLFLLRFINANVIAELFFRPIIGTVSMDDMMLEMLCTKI
Kind of test: Luminescence-based cell-based high throughput dose response assay for inhibitors of the orphan nuclear receptor subfamily 0, group B, member 1 (DAX1; NR0B1). [Related pubchem assays (depositor defined):AID504766, AID504790]. Type of test: functional.

Test [3] can be described thus: inhibitors of firefly luciferase expression or activity, dose response, H4 neuroglioma cells, luminescence (AID 1990). In kind it is functional, cell-based.
For the next test, the target named is Beta Lactamase (Pseudomonas aeruginosa, UniProt Q932Y6). Description: beta-lactamase reporter inhibitor potency, dose response, artefact control for TLR9-MyD88 binding inhibitor project, BLA reporter cells, FRET fluorescence (AID 588341).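 Also: cell based assay in CHO-K1 cells stably expressing beta-lactamase.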 In kind it is cell-based.
The nature of test [4]: inhibitors of SNCA 5'UTR-driven reporter translation, confirmation, H4 neuroglioma cells, luminescence (AID 1988). Type of test: functional, cell-based.
In a further test the target is T4, Streptokinase A (Streptococcus pyogenes serotype M1, UniProt P10520).
T4 sequence (P10520 whole entry): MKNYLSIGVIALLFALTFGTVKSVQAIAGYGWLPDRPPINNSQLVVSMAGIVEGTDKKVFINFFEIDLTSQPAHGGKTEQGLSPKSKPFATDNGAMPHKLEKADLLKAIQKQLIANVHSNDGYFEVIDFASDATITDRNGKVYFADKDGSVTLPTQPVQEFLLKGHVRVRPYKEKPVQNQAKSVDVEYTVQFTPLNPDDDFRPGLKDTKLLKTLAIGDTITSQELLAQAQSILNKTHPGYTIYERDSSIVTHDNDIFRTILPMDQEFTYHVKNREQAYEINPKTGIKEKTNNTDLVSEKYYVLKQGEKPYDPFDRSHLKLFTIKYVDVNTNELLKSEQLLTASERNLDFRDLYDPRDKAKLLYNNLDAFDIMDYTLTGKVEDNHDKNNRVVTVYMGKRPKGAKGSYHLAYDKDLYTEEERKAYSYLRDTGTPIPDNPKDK
Kind of test: S. pyogenes streptokinase expression inhibitors, potency, dose response, plasminogen activation absorbance, OD405 (AID 1914).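 Also: secreted streptokinase activity via plasminogen activation per viability signal from cell pellet.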 Type of test: functional, Streptococcus pyogenes M1 GAS.

For test [5], the target named is T5, Microphthalmia-associated transcription factor (Homo sapiens, UniProt O75030).
T5 sequence (O75030 whole entry): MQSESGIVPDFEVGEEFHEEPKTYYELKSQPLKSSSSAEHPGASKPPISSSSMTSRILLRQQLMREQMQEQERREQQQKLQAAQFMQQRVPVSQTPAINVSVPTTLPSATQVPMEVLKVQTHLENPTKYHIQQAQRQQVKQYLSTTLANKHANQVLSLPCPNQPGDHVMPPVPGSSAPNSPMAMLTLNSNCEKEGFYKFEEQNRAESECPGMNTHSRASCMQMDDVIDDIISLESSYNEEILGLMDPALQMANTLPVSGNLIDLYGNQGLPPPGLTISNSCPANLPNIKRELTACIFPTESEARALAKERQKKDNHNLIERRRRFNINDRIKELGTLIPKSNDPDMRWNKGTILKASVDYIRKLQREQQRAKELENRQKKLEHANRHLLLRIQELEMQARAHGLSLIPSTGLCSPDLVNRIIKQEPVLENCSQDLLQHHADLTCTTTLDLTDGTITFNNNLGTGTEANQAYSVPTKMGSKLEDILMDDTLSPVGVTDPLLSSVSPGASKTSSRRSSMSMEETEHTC
Description: TRPM1 promoter luciferase signal decrease, dose response, MITF inhibitor project, cell-based, SK-MEL-5, cherry-picked, set 3 (AID 493073).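 Also: SK-MEL-5 melanoma cells with luciferase driven by the MITF target TRPM1 promoter.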 In kind it is functional.

The subject of another test is A-375. Kind of test: A375 melanoma cell viability reduction, dose response, counter-screen for MITF modulator project, cherry-pick samples, set 2 (AID 540335). Type of test: functional, cell-based. The following applies: Homo sapiens. A general note: The purpose of a counterscreen is to sort out artefacts and off-target activity.
The next test relates to INS1. Description: beta cell apoptosis inhibitors, cytokine rescue, dose response, luminescence, retest (AID 449756).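 Also: cell death triggered by IL-1 beta plus TNF-alpha plus IFN-gamma mixture; protective hits raise ATP signal compared with cytokine alone wells.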 Type of test: functional, cell-based. The following applies: Rattus norvegicus.
The nature of test [6]: control 3'UTR Renilla luciferase suppression, dose response, counter-screen for Shn3 inhibitor project, cell-based, Clone20-Shn3RL, cherry-picked (AID 624133). Type of test: functional.
Test [7] in a line: Shn3 3'UTR reporter inhibitors, dose response, cell-based, Clone20 osteoblasts, firefly luciferase, cherry-picked (AID 624132).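 Also: firefly luciferase luminescence from reporter carrying the Shn3 3'UTR in osteoblasts.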 Type of test: functional.
Another test relates to CHO. Kind of test: cytotoxicity in TLR9-MyD88 CHO cells, dose response, cytotoxicity control for TLR9-MyD88 binding inhibitor project, cell-based, luminescence (AID 588339).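 Also: CHO cells stably coexpressing TLR9 and MyD88 fusions from primary screen; compound exposure lasted 48 hours before viability readout.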 In kind it is functional, hamster. The following applies: Cricetulus griseus.
Test [8] can be described thus: HepG2 cell cytotoxicity, dose response, cytotoxicity control for Shn3 inhibitor project, CellTiter-Glo, cherry-picked (AID 624134). In kind it is functional, cell-based.
Test [9] deals with Streptococcus sp. 'group A'. Description: growth inhibition of control SK(-) GAS strain, dose response, counter-screen for streptokinase expression inhibitor project, luminescence, kanamycin, BacTiterGlo, confirmation (AID 1900). In kind it is functional, organism-based.
In another test the test system is Streptococcus. Description: Group A Streptococcus viability loss, dose response, counter-screen for streptokinase expression inhibitor project, luminescence, BacTiterGlo (AID 1915).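 Also: potency for reduction of bacterial viability or growth.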 Type of test: functional, organism-based.
Test [10] in a line: Luminescence Cell-Based Dose Response HTS to Identify Inhibitors of 5'UTR Stem-Loop Driven Prion Protein mRNA Translation in H4 Neuroglioblastoma Cells. [Related pubchem assays: 1827 (Project Summary), 1813 (Primary HTS)]. Type of test: functional.

Beta-2 adrenergic receptor, sequence (P07550 whole entry): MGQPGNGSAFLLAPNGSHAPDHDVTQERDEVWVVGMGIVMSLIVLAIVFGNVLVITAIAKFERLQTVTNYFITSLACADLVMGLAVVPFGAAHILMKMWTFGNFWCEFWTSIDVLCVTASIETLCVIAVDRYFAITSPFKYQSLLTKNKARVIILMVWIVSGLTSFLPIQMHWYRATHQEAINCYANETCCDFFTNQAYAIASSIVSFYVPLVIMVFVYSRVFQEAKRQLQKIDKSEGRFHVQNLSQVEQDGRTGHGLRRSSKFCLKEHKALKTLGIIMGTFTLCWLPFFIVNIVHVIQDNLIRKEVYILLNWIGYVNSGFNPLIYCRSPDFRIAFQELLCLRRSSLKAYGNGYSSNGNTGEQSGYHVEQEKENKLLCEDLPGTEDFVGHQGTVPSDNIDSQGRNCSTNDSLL
Cytochrome P450 2C9, sequence (P11712 whole entry): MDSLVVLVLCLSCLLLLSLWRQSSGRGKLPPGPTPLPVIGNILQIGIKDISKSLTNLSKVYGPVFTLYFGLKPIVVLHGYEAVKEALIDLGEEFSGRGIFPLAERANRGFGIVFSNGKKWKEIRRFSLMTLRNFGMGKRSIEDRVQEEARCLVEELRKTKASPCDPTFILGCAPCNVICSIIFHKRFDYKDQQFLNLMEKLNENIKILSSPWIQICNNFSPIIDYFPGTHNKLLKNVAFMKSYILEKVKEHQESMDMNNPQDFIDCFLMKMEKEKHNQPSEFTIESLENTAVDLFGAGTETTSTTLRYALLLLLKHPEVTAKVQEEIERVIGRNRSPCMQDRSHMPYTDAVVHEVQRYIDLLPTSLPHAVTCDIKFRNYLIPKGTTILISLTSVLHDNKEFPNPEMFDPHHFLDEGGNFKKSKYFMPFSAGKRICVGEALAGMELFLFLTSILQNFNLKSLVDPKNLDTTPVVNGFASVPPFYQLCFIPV
Beta Lactamase, sequence (Q932Y6 whole entry): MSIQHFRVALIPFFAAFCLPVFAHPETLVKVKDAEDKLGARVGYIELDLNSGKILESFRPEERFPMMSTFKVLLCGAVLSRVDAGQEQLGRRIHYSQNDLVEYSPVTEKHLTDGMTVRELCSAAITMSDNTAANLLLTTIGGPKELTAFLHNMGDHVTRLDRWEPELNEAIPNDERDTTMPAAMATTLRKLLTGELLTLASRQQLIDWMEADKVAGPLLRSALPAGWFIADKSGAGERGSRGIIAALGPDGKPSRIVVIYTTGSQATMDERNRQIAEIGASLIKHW

One may read the EC50 as the concentration giving half of the maximal effect. As to `CCN(Cc1ccccc1)S(=O)(=O)c1cc(C(=O)NC(C)C2CC3CCC2C3)ccc1OC` (stereo not drawn), the EC50 in test [1] is 8.76 µM (active).
A word on the AC50: it is the concentration at which the activity in the assay is half-maximal. With `O=C(C[n+]1cccc(NC(=O)c2ccccc2)c1)c1ccc(NC(=O)c2ccccc2)cc1`, the concentration giving a half-maximal response (EC50) in [1] was 2.76 µM (active). Moreover, the AC50 on Cytochrome P450 1A2 is 17.8 µM (inconclusive); on Cytochrome P450 2C9, 5.62 µM (inconclusive).
Broadly, the IC50 is the concentration needed to halve the response being measured. For `Cc1ccc(S(=O)(=O)Oc2cccc(N3C(=O)C4CC=CCC4C3=O)c2)cc1` (stereo not drawn), the 50% inhibitory concentration (IC50) on Leucine aminopeptidase is 49.6 µM (active); in the test with HEK293 it was > 67.5 µM (inactive); in test [2] it was > 67.5 µM (inactive).
Regarding `CSCC[C@H](NC(=O)OC(C)(C)C)C(=O)N1CCC(C(=O)N[C@@H](C)C(=O)NC(C)c2ccccc2)CC1` (stereo partly drawn), the IC50 (in the test on HEK293; in test [2]) was > 67.5 µM (inactive) throughout.
For the molecule `CCOC(=O)c1ccc(NC(=O)c2nc(S(=O)(=O)Cc3ccccc3)ncc2Cl)cc1`, the EC50 in [3] is > 120 µM (not active); in test [4] it was 10.8 µM (active); on Streptokinase A it was 2.11 µM (active); in test [9] it was 6.81 µM (active); with Streptococcus it was 10 µM (active); in [10] it was 10.3 µM (active). In addition, the 50% inhibitory concentration (IC50) was 8.4 µM (active) at Beta Lactamase and 1.95 µM (active) in the test on CHO. Further, the AC50 was 9.92 µM (active) in test [5]; 36.6 µM (active) in the test with A-375; 6.7 µM (active) in the test on INS1; 7.7 µM (active) in [6]; 0.572 µM (active) in [7]; 28.9 µM (active) in test [8].

The record behind these values is ChEMBL document CHEMBL1201862, “PubChem BioAssay data set” (2004).
